Reference: patent publication US20240279232A1, “USE OF SUBSTITUTED 5-(4-METHYL-6-PHENYL-4H-BENZO[F]IMIDAZO[1,5-A][1,4] DIAZEPIN-3-YL)-1,2,4-O[…] THE TREATMENT OF INFLAMMATORY CONDITIONS” (priority 2021, published 2024)
Like-named read-outs stand apart in the source and are kept apart here.

How the values were obtained:
[1] = target: T1, MOR (μ opioid receptor) (Homo sapiens, UniProt P35372); test: MOR radioligand binding ([3H]-DAMGO, HEK293 cell homogenates); conditions: Percent inhibition at 10,000 nM; [3H]-DAMGO
T1 construct: expressed in transfected cells; host or cells: HEK293
Experimental: (§1) Radioligand binding assays. Detailed protocols for the primary and secondary radioligand binding assays can be found in the National Institute of Mental Health's Psychoactive Drug Screening Program (NIMH PDSP) Assay Protocol Book (Roth, 2018). Briefly, primary and secondary radioligand binding assays are carried out in a final of volume of 125 μL per well in appropriate binding buffer. […] Total binding and nonspecific binding are determined in the absence and presence of 10 μM of appropriate reference compound (Naltrindole DOR, Salvinorin A KOR and DAMGO MOR). In brief, plates are usually incubated at room temperature and in the dark for 90 min. Reactions are stopped by vacuum filtration onto 0.3% polyethyleneimine (PEI) soaked 96-well filter mats using a 96-well Filtermate harvester, followed by three washes with cold PBS buffer. Scintillation cocktail is then melted onto the microwave-dried filters on a hot plate and radioactivity counted in a Microbeta counter. The data (n=6) were analyzed by nonlinear regression.
(§2) Ligand affinities were determined for KOR (κ opioid receptor), DOR (δ opioid receptor), and MOR (μ opioid receptor) using radioligand binding assays at a screening concentration of 10,000 nM. For these assays, cell homogenates from HEK293 cells that overexpressed KOR, MOR, and DOR were used in combination with [^3H]-U69593, [^3H]-DAMGO, and [^3H]-DADLE, respectively Compounds that exceeded more than 50% radioligand displacement were investigated further in concentration-dependent experiments to determine Ki values. Gamma aminobutyric acid type A receptor (GABAAR) binding was determined with rat brain homogenate and ^3H-flunitrazepam. Flunitrazepam binds GABAAR subtypes that consists of two α and two β subunits and one γ or δ subunit. Strong affinities to α1-3,5,6β1-3γ1-y/δ GABAARS have been reported for flunitrazepam. The […] GABAAR subtype expression in the brain includes 43% α1β2γ2, 15% α2β3γ2+8% α2βγ1, 10% α3β3γ2, 6% α4βγ/δ, 4% α5β3γ2, and 4% α6β2γ2/δ. Therefore, compounds with high affinity toward the synaptic benzodiazepine-sensitive receptors (BZR) predominately bind α1-3β2-3γ1-2 GABAARs. Alternatively, compounds with weak BZR binding might be selective for α4-6βγ/δ GABAARs.
(§3) Psychoactive Drug Screening Program. Detailed protocols for the primary and secondary radioligand binding assays can be found in the National Institute of Mental Health's Psychoactive Drug Screening Program (NIMH PDSP) Assay Protocol Book. Briefly, primary and secondary radioligand binding assays are carried out in a final of volume of 125 μL per well in appropriate binding buffer. The radioactive ligand concentration is close to the Kd. Total binding and nonspecific binding are determined in the absence and presence of 10 μM of appropriate reference compound, respectively. In brief, plates are usually incubated at room temperature and in the dark for 90 min. Reactions are stopped by vacuum filtration onto 0.3% polyethyleneimine (PEI) soaked 96-well filter mats using a 96-well Filtermate harvester, followed by three washes with cold PBS buffer. Scintillation cocktail is then melted onto the microwave-dried filters on a hot plate and radioactivity counted in a Microbeta counter. The data (n=6) were analyzed by nonlinear regression.

[2] = system: BZR (benzodiazepine site of GABAAR); test: GABAAR/BZR binding, rat brain homogenate with 3H-flunitrazepam; conditions: rat brain homogenate, 3H-flunitrazepam; for BZR %: Percent inhibition at 10,000 nM
Experimental: as §2, §3

[3] = target: T2, DOR (δ opioid receptor) (Homo sapiens, UniProt P41143); test: DOR radioligand binding ([3H]-DADLE, HEK293 cell homogenates); conditions: Percent inhibition at 10,000 nM; [3H]-DADLE
T2 construct: expressed in transfected cells; host or cells: HEK293
Experimental: as §1, §2, §3

[4] = target: T3, KOR (κ opioid receptor) (Homo sapiens, UniProt P41145); test: KOR radioligand binding ([3H]-U69593, HEK293 cell homogenates)
T3 construct: expressed in transfected cells; host or cells: HEK293 (stably transfected)
Experimental: as §1, §2, §3

[5] = system: Mouse microglia; test: Cell viability (CellTiter-Glo), mouse microglia; format: cell-based; conditions: CellTiter-Glo, activated microglia
Experimental: Next, a library of GABAAR ligands was investigated to identify compounds that reduce the production of NO as a marker of anti-inflammatory activity. […] NO was quantified with a Greiss assay. Cell viability was determined with CellTiter-Glo.
Nitric oxide production (Griess assay) and viability assay (CellTiter-Glo). 80 μL of mouse microglia culture (1×10^6 cells/mL) was plated into sterile 384 well plates representing non-activated wells. The remaining culture was activated with 50 ng/ml LPS (Invivogen, NC9836) and 150 U/mL IFNγ (R&D Systems, 485MI100) and distributed into the 384 well plates. […] Assay plates were incubated for approximately 24 hours (unless otherwise noted) at 37° C., centrifuged, and 40 μL of supernatant transferred to a new plate for analysis using the Griess Assay (Promega, Madison, WI). Absorbance at 530 nm was measured using a TECAN Infinite M1000 plate reader. The remaining 40 μL containing cells was analyzed for toxicity by the CellTiter-Glo Assay (Promega, Madison, WI). Luminescence was read using a TECAN Infinite M1000 plate reader.

[6] = Percent inhibition at 10,000 nM, [3H]-U69593
[7] = concentration-dependent, [3H]-U69593, read-out: KOR (Ki)

T3 sequence (P41145 whole entry): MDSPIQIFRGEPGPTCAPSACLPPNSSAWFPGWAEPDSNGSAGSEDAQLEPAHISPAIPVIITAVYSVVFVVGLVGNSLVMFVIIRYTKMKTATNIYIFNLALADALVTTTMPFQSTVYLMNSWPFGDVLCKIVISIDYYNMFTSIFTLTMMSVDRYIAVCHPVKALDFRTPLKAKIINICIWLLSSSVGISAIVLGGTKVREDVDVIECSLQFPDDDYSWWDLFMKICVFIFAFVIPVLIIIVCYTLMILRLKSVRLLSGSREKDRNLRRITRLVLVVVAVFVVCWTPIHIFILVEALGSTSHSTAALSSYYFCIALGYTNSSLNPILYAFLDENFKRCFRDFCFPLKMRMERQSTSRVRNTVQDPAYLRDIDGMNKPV
T2 sequence (P41143 whole entry): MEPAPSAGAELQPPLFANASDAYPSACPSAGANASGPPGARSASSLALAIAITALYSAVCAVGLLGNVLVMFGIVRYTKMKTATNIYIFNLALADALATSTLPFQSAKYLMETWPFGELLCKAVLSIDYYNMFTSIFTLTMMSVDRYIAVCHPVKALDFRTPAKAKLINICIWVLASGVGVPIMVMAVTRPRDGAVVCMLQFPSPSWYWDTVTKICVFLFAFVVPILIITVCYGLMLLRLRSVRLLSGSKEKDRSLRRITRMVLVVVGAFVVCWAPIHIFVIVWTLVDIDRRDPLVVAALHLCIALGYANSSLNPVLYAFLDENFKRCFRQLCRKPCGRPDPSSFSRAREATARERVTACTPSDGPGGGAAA
T1 sequence (P35372 whole entry, species assumed): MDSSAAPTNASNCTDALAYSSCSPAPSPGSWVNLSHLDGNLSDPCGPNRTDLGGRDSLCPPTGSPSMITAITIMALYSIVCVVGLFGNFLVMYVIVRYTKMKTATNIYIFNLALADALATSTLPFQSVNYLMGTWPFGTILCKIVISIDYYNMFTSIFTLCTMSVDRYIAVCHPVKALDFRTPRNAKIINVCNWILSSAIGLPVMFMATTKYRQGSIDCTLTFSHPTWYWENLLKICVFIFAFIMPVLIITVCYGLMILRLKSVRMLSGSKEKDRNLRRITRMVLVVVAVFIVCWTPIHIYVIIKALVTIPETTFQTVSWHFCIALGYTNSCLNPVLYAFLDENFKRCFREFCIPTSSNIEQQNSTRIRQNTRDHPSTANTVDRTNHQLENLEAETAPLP

Row | Compound | inhibition at 10 µM [1] [%] | BZR % [2] [%] | Ki [2] [nM] | inhibition at 10 µM [3] [%] | inhibition at 10 µM [4, 6] [%] | Ki [4, 7] [nM] | MOR % [1] [%] | DOR % [3] [%] | KOR % [4, 6] [%] | Ki [4] [nM] | cell viability / cytotoxicity in the NO competition experiments (in words) [5]
1 | Brc1ccc2c(c1)C(c1ccccc1)=NCc1c(-c3cnco3)ncn1-2 [KRM-II-73] | 11 | 97 | 45 | 32 | 83 | 736 | – | – | – | – | –
2 | Brc1ccc2c(c1)C(c1ccccn1)=NCc1c(-c3cnco3)ncn1-2 [KRM-II-97] | 18 | 93 | 140 | 8 | 62 | 1960 | – | – | – | – | –
3 | Cc1ncoc1-c1ncn2c1CN=C(c1ccccc1F)c1cc(Br)ccc1-2 [KRM-III-59] | – | 96 | 20 | – | – | 408 | 0 | 11 | 73 | – | –
4 | C#Cc1ccc2c(c1)C(c1ccccc1F)=NCc1c(-c3ocnc3C)ncn1-2 [KRM-III-65] | 0 | 96 | 45 | 16 | 64 | 879 | – | – | – | – | –
5 | Cc1ncoc1-c1ncn2c1CN=C(c1ccccc1)c1cc(Br)ccc1-2 [KRM-III-66] | 12 | 86 | 49 | 11 | 67 | 756 | – | – | – | – | –
6 | C#Cc1ccc2c(c1)C(c1ccccn1)=NCc1c(-c3cnco3)ncn1-2 [KRM-III-67] | 30 | 71 | 144 | 3 | 48 | – | – | – | – | – | –
7 | C#Cc1ccc2c(c1)C(c1ccccn1)=NCc1c(-c3ocnc3C)ncn1-2 [KRM-III-79] | 32 | 81 | 308 | 1 | 9 | – | – | – | – | – | –
8 | C#Cc1ccc2c(c1)C(c1ccccc1F)=N[C@@H](C)c1c(C(=O)NC)ncn1-2 [MP-II-023] | 0 | 97 | 37 | 16 | 91 | 119 | – | – | – | – | –
9 | C#Cc1ccc2c(c1)C(c1ccccn1)=NCc1c(C(=O)OC(C)C)ncn1-2 [MP-II-068] | 0 | 97 | 42 | 34 | 85 | 550 | – | – | – | – | –
10 | C#Cc1ccc2c(c1)C(c1ccccc1F)=N[C@H](C)c1c(C(=O)OC)ncn1-2 [MP-III-004] | 0 | 78 | 445 | 24 | 76 | 599 | – | – | – | – | –
11 | C#Cc1ccc2c(c1)C(c1ccccc1F)=N[C@@H](C)c1c(C(N)=O)ncn1-2 [MP-III-018.B] | 2 | 97 | 17 | 10 | 51 | 2780 | – | – | – | – | –
12 | C#Cc1ccc2c(c1)C(c1ccccc1F)=N[C@H](C)c1c(C(N)=O)ncn1-2 [MP-III-019.B] | 2 | 94 | 54 | 0 | 62 | 1530 | – | – | – | – | –
13 | C#Cc1ccc2c(c1)C(c1ccccc1F)=N[C@@H](C)c1c(C(=O)OC)ncn1-2 [MP-III-021] | 0 | 88 | 219 | 22 | 93 | 122 | – | – | – | – | –
14 | C#Cc1ccc2c(c1)C(c1ccccn1)=NCc1c(C(=O)OC)ncn1-2 [MP-III-024] | 0 | 81 | 277 | 24 | 43 | – | – | – | – | – | –
15 | COC(=O)c1ncn2c1[C@@H](C)N=C(c1ccccc1F)c1cc(Br)ccc1-2 [MP-III-058] | 0 | 86 | 290 | 4 | 84 | – | – | – | – | – | –
16 | C#Cc1ccc2c(c1)C(c1ccccn1)=NCc1c(-c3nc(C)no3)ncn1-2 [MP-III-085] | 0 | 82 | 357 | 0 | 40 | – | – | – | – | – | –
17 | C#Cc1ccc2c(c1)C(c1ccccc1F)=N[C@H](C)c1c(C(=O)O)ncn1-2 [SH-053-2'F-R-CH3-Acid] | 0 | 93 | 37 | 0 | 16 | – | – | – | – | – | –
18 | C#Cc1ccc2c(c1)C(c1ccccc1F)=N[C@H](C)c1c(C(=O)OCC)ncn1-2 [SH-053-2′F-R-CH3] | 28 | 85 | 379 | 32 | 89 | 240 | – | – | – | – | –
19 | C#Cc1ccc2c(c1)C(c1ccccc1F)=N[C@@H](C)c1c(C(=O)OCC)ncn1-2 [SH-053-2′F-S-CH3] | 7 | 92 | 111 | 36 | 93 | 90 | – | – | – | – | –
20 | C#Cc1ccc2c(c1)C(c1ccccc1F)=N[C@@H](C)c1c(C(=O)O)ncn1-2 [SH-053-2′P-S-CH3 Acid] | 0 | 93 | 29 | 18 | 20 | – | – | – | – | – | –
21 | CCOC(=O)c1ncn2c1[C@@H](C)N=C(c1ccccc1F)c1cc(Br)ccc1-2 [SH-I-047] | 16 | 84 | 238 | 0 | 82 | – | – | – | – | 86 | –
22 | CCOC(=O)c1ncn2c1[C@H](C)N=C(c1ccccc1F)c1cc(Br)ccc1-2 [SH-I-048B] | 0 | 61 | 96 | 0 | 95 | – | – | – | – | 63 | –
23 | Fc1ccccc1C1=NCc2c(-c3cnco3)ncn2-c2ccc(Br)cc21 [SH-I-85] | 16 | 99 | 11 | 33 | 91 | 162 | – | – | – | – | –
24 | C#Cc1ccc2c(c1)C(c1ccccn1)=NCc1c(C(=O)O)ncn1-2 [SR-II-54] | 8 | 80 | 69 | 1 | 9 | – | – | – | – | – | –
25 | C[C@@H]1C[C@H]2[C@@H]3CCC4=CC(=O)C=C[C@]4(C)[C@@]3(F)[C@@H](O)C[C@]2(C)[C@@]1(O)C(=O)CO [dexamethasone, reference compound] | – | – | – | – | – | – | – | – | – | – | without cell toxicity
